Key:
cGKII = target: T1, cGKII (Homo sapiens, UniProt Q13237); test: […]-ATP peptide (2A3) phosphorylation; format: biochemical; conditions: read-out: pIC50 in vitro (converted)
T1 construct: gene PRKG2; recombinant full-length, His-tagged, baculovirus insect cell expression; dimer
T1 sequence (Q13237 2-762): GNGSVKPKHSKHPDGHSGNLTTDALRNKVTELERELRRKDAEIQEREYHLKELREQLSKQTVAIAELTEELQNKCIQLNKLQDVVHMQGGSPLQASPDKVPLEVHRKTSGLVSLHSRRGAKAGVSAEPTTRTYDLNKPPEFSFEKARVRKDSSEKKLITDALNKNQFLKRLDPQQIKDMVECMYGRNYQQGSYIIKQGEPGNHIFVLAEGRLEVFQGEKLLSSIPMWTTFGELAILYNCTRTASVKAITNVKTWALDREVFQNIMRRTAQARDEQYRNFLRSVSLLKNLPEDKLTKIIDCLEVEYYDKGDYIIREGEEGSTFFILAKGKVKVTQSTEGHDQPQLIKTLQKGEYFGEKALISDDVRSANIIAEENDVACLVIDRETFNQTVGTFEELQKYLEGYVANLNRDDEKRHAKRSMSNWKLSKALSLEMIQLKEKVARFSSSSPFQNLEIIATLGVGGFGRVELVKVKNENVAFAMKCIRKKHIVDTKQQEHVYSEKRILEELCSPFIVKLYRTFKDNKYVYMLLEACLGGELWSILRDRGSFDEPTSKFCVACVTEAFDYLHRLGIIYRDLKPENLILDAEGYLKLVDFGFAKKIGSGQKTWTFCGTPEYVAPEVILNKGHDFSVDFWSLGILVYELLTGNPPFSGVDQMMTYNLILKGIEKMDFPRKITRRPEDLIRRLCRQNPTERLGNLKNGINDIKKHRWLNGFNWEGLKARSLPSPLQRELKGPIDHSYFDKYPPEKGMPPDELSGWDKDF

cGKI = target: T2, cGKI (Homo sapiens, UniProt Q13976); test: […]-ATP peptide (2A3) phosphorylation; format: biochemical; conditions: 50 uM cGMP, pH 7.4, 5 mM MgCl2, 22 C
T2 construct: gene PRKG1; recombinant full-length, commercial (Promega)
T2 sequence (Q13976 2-671): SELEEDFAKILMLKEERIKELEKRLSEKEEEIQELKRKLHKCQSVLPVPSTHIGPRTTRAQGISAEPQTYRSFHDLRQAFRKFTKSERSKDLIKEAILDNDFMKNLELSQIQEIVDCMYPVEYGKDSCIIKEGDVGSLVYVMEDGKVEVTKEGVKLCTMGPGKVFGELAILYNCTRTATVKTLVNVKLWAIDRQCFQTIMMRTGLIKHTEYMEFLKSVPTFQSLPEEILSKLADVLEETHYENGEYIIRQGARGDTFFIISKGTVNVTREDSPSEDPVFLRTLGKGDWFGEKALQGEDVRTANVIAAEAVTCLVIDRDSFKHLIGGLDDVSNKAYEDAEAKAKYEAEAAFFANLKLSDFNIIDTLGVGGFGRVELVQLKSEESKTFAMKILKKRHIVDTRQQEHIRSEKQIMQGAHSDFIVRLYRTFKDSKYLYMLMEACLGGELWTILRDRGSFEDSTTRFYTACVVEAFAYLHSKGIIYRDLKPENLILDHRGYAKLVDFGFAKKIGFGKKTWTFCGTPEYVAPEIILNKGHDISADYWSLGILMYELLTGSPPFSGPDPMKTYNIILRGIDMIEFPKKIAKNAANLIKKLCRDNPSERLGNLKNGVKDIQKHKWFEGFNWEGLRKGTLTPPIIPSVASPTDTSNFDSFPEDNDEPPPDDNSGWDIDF

SMILES | IC50 (cGKII) [nM] | pIC50 (cGKI)
c1ccc2c(CCNc3nccc(-c4ccc5c(c4)OCCO5)n3)c[nH]c2c1 [AP-C4] | 6310 | –
COc1ccc(CCNc2nccc(-c3ccc4c(c3)OCCO4)n2)cc1OC [AP-C3] | 501 | –
c1csc(-c2ccnc(NCCc3c[nH]c4ccccc34)n2)c1 [AP-C2] | 6310 | –

Second part, led by results:

IC50 (cGKII) [nM] | SMILES | pIC50 (cGKI)
63.1 | C#CCNc1nccc(-c2ccc(-n3ccnc3)cc2)n1 [AP-C5] | potency of inhibition of cGKI and PKA was markedly lower than of cGKII
10000 | c1coc(CNc2nccc(-c3ccc(-n4ccnc4)cc3)n2)c1 [AP-C7] | –
316 | COc1ccc(CCNc2nccc(-c3ccc4ccccc4c3)n2)cc1OC [AP-C1] | –
316 | OCCNc1nccc(-c2ccc(-n3ccnc3)cc2)n1 [AP-C6] | potency of inhibition of cGKI and PKA was markedly lower than of cGKII

Source: paper PMC5971447, “Selective inhibition of intestinal guanosine 3′,5′-cyclic monophosphate signaling by small-molecule protein kinase inhibitors” (The Journal of Biological Chemistry, 2018)
